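GI50: concentration for 50% inhibition of growth. TGI: total growth inhibition.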
What was measured:
Experiment in all cases: NCI-60 cell line screen, 384-well format
A498 renal = system: A498 renal
ACHN renal = system: ACHN renal
BT-549 breast = system: BT-549 breast
CAKI-1 renal = system: CAKI-1 renal
DU-145 prostate = system: DU-145 prostate
EKVX NSCLC = system: EKVX NSCLC
HCT-116 colon = system: HCT-116 colon
HL-60(TB) leukemia = system: HL-60(TB) leukemia
HOP-92 NSCLC = system: HOP-92 NSCLC
HS 578T breast = system: HS 578T breast
IGROV1 ovarian = system: IGROV1 ovarian
MALME-3M melanoma = system: MALME-3M melanoma
MDA-MB-468 breast = system: MDA-MB-468 breast
OVCAR-3 ovarian = system: OVCAR-3 ovarian
RXF 393 renal = system: RXF 393 renal
SR leukemia = system: SR leukemia
T-47D breast = system: T-47D breast
TK-10 renal = system: TK-10 renal
U251 glioblastoma = system: U251 glioblastoma
786-0 renal = system: 786-0 renal
A549 NSCLC = system: A549 NSCLC
CCRF-CEM leukemia = system: CCRF-CEM leukemia
COLO 205 colon = system: COLO 205 colon
HCC-2998 colon = system: HCC-2998 colon
HCT-15 colon = system: HCT-15 colon
HOP-62 NSCLC = system: HOP-62 NSCLC
HT29 colon = system: HT29 colon
K-562 leukemia = system: K-562 leukemia
KM12 colon = system: KM12 colon
LOX IMVI melanoma = system: LOX IMVI melanoma
M14 melanoma = system: M14 melanoma
MCF7 breast = system: MCF7 breast
MDA-MB-231 breast = system: MDA-MB-231 breast
MDA-MB-435 melanoma = system: MDA-MB-435 melanoma
MOLT-4 leukemia = system: MOLT-4 leukemia
NCI-H226 lung = system: NCI-H226 lung
NCI-H23 lung = system: NCI-H23 lung
NCI-H322M lung = system: NCI-H322M lung
NCI-H460 NSCLC = system: NCI-H460 NSCLC
NCI-H522 lung = system: NCI-H522 lung
NCI/ADR-RES ovarian = system: NCI/ADR-RES ovarian
OVCAR-4 ovarian = system: OVCAR-4 ovarian
OVCAR-5 ovarian = system: OVCAR-5 ovarian
OVCAR-8 ovarian = system: OVCAR-8 ovarian
PC-3 prostate = system: PC-3 prostate
RPMI-8226 leukemia = system: RPMI-8226 leukemia
SF-268 CNS = system: SF-268 CNS
SF-295 CNS = system: SF-295 CNS
SF-539 CNS = system: SF-539 CNS
SK-MEL-2 melanoma = system: SK-MEL-2 melanoma
SK-MEL-28 melanoma = system: SK-MEL-28 melanoma
SK-MEL-5 melanoma = system: SK-MEL-5 melanoma
SK-OV-3 ovarian = system: SK-OV-3 ovarian
SN12C renal = system: SN12C renal
SNB-19 CNS = system: SNB-19 CNS
SNB-75 CNS = system: SNB-75 CNS
SW-620 colon = system: SW-620 colon
UACC-257 melanoma = system: UACC-257 melanoma
UACC-62 melanoma = system: UACC-62 melanoma
UO-31 renal = system: UO-31 renal

Structure (SMILES): NC[C@@](O)(c1ccc(Cl)cc1)c1ccc(-c2cn[nH]c2)cc1
- GI50 (A498 renal): 1320 nM
- TGI (A498 renal): 2610 nM
- GI50 (ACHN renal): 1320 nM
- TGI (ACHN renal): 2600 nM
- GI50 (BT-549 breast): 511 nM
- TGI (BT-549 breast): 1780 nM
- GI50 (CAKI-1 renal): 560 nM
- TGI (CAKI-1 renal): 1940 nM
- GI50 (DU-145 prostate): 1470 nM
- TGI (DU-145 prostate): 2810 nM
- GI50 (EKVX NSCLC): 560 nM
- TGI (EKVX NSCLC): 1820 nM
- GI50 (HCT-116 colon): 1650 nM
- TGI (HCT-116 colon): 3080 nM
- GI50 (HL-60(TB) leukemia): 944 nM
- TGI (HL-60(TB) leukemia): 2160 nM
- GI50 (HOP-92 NSCLC): 1200 nM
- TGI (HOP-92 NSCLC): 2530 nM
- GI50 (HS 578T breast): 957 nM
- TGI (HS 578T breast): 2150 nM
- GI50 (IGROV1 ovarian): 323 nM
- TGI (IGROV1 ovarian): 1270 nM
- GI50 (MALME-3M melanoma): 1650 nM
- TGI (MALME-3M melanoma): 3020 nM
- GI50 (MDA-MB-468 breast): 849 nM
- TGI (MDA-MB-468 breast): 2110 nM
- GI50 (OVCAR-3 ovarian): 1960 nM
- TGI (OVCAR-3 ovarian): 3390 nM
- GI50 (RXF 393 renal): 999 nM
- TGI (RXF 393 renal): 2180 nM
- GI50 (SR leukemia): 369 nM
- TGI (SR leukemia): 1380 nM
- GI50 (T-47D breast): 1300 nM
- TGI (T-47D breast): 2590 nM
- GI50 (TK-10 renal): 904 nM
- TGI (TK-10 renal): 2110 nM
- GI50 (U251 glioblastoma): 1580 nM
- TGI (U251 glioblastoma): 2950 nM

Structure (SMILES): CC(C)Oc1ccc(C(=O)N[C@H](CNC(=O)CN(C)C)Cc2ccc(-c3cn4cccc([C@H](C)O)c4n3)cc2)cc1Cl
- GI50 ([…]-0 renal): < 17.8 nM
- TGI (786-0 renal): 4560 nM
- GI50 (A498 renal): < 22.9 nM
- TGI (A498 renal): 11400 nM
- GI50 (A549 NSCLC): < 20.7 nM
- TGI (A549 NSCLC): 14500 nM
- GI50 (ACHN renal): 53.7 nM
- TGI (ACHN renal): 20100 nM
- GI50 (BT-549 breast): < 21.2 nM
- GI50 (CAKI-1 renal): < 28.3 nM
- TGI (CAKI-1 renal): 15400 nM
- GI50 (CCRF-CEM leukemia): 17.2 nM
- TGI (CCRF-CEM leukemia): 33.5 nM
- GI50 (COLO 205 colon): 21.4 nM
- TGI (COLO 205 colon): 42.7 nM
- GI50 (DU-145 prostate): < 17.4 nM
- TGI (DU-145 prostate): < 28.9 nM
- GI50 (EKVX NSCLC): 27.9 nM
- TGI (EKVX NSCLC): 240 nM
- GI50 (HCC-2998 colon): < 17.9 nM
- GI50 (HCT-116 colon): < 17.2 nM
- TGI (HCT-116 colon): 12200 nM
- GI50 (HCT-15 colon): 84.7 nM
- TGI (HCT-15 colon): 15800 nM
- GI50 (HL-60(TB) leukemia): < 14.2 nM
- TGI (HL-60(TB) leukemia): < 18.9 nM
- GI50 (HOP-62 NSCLC): < 18.1 nM
- TGI (HOP-62 NSCLC): 14700 nM
- GI50 (HOP-92 NSCLC): 55 nM
- TGI (HOP-92 NSCLC): 12300 nM
- GI50 (HT29 colon): < 12.2 nM
- TGI (HT29 colon): < 21.4 nM
- TGI (IGROV1 ovarian): 20900 nM
- GI50 (K-562 leukemia): < 12.8 nM
- TGI (K-562 leukemia): < 22.1 nM
- GI50 (KM12 colon): < 20.9 nM
- TGI (KM12 colon): 13800 nM
- GI50 (LOX IMVI melanoma): 37.9 nM
- TGI (LOX IMVI melanoma): 10300 nM
- GI50 (M14 melanoma): < 16 nM
- TGI (M14 melanoma): 269 nM
- GI50 (MALME-3M melanoma): 182 nM
- TGI (MALME-3M melanoma): 3160 nM
- GI50 (MCF7 breast): < 23 nM
- TGI (MCF7 breast): 13500 nM
- GI50 (MDA-MB-231 breast): < 19.6 nM
- TGI (MDA-MB-231 breast): 4270 nM
- GI50 (MDA-MB-435 melanoma): < 14.2 nM
- TGI (MDA-MB-435 melanoma): < 22.8 nM
- GI50 (MDA-MB-468 breast): < 10 nM
- TGI (MDA-MB-468 breast): < 10 nM
- GI50 (MOLT-4 leukemia): < 11.1 nM
- TGI (MOLT-4 leukemia): < 15.9 nM
- GI50 (NCI-H226 lung): 343 nM
- TGI (NCI-H226 lung): 14500 nM
- GI50 (NCI-H23 lung): < 14.5 nM
- TGI (NCI-H23 lung): < 21.8 nM
- GI50 (NCI-H322M lung): < 25.7 nM
- TGI (NCI-H322M lung): 16700 nM
- GI50 (NCI-H460 NSCLC): < 14.7 nM
- TGI (NCI-H460 NSCLC): < 21.4 nM
- GI50 (NCI-H522 lung): < 10 nM
- TGI (NCI-H522 lung): < 10 nM
- GI50 (NCI/ADR-RES ovarian): 1410 nM
- TGI (NCI/ADR-RES ovarian): 4670 nM
- GI50 (OVCAR-3 ovarian): < 10 nM
- TGI (OVCAR-3 ovarian): < 10 nM
- GI50 (OVCAR-4 ovarian): < 20.9 nM
- TGI (OVCAR-4 ovarian): 16100 nM
- GI50 (OVCAR-5 ovarian): < 20.7 nM
- TGI (OVCAR-5 ovarian): 14400 nM
- GI50 (OVCAR-8 ovarian): < 19 nM
- TGI (OVCAR-8 ovarian): 15900 nM
- GI50 (PC-3 prostate): < 20.3 nM
- TGI (PC-3 prostate): 12800 nM
- GI50 (RPMI-8226 leukemia): < 13.7 nM
- TGI (RPMI-8226 leukemia): < 18.4 nM
- GI50 (RXF 393 renal): < 18.5 nM
- GI50 (SF-268 CNS): < 17.9 nM
- TGI (SF-268 CNS): 13200 nM
- GI50 (SF-295 CNS): < 10 nM
- TGI (SF-295 CNS): < 10 nM
- GI50 (SF-539 CNS): < 15.9 nM
- TGI (SF-539 CNS): < 34 nM
- GI50 (SK-MEL-2 melanoma): < 10 nM
- TGI (SK-MEL-2 melanoma): < 13 nM
- GI50 (SK-MEL-28 melanoma): 270 nM
- TGI (SK-MEL-28 melanoma): 8220 nM
- GI50 (SK-MEL-5 melanoma): < 21.1 nM
- GI50 (SK-OV-3 ovarian): < 16.1 nM
- TGI (SK-OV-3 ovarian): 8720 nM
- GI50 (SN12C renal): < 20 nM
- TGI (SN12C renal): 14200 nM
- GI50 (SNB-19 CNS): < 17.4 nM
- TGI (SNB-19 CNS): 14800 nM
- GI50 (SNB-75 CNS): 44.6 nM
- TGI (SNB-75 CNS): 16600 nM
- GI50 (SR leukemia): < 12.1 nM
- TGI (SR leukemia): < 17.1 nM
- GI50 (SW-620 colon): < 19.8 nM
- TGI (SW-620 colon): 13400 nM
- GI50 (T-47D breast): < 17.4 nM
- TGI (T-47D breast): 12100 nM
- GI50 (TK-10 renal): < 26.7 nM
- TGI (TK-10 renal): 14700 nM
- GI50 (U251 glioblastoma): < 17.5 nM
- TGI (U251 glioblastoma): 11500 nM
- GI50 (UACC-257 melanoma): < 21.9 nM
- TGI (UACC-257 melanoma): 1820 nM
- GI50 (UACC-62 melanoma): < 17.7 nM
- TGI (UACC-62 melanoma): 9180 nM
- GI50 (UO-31 renal): 49.2 nM
- TGI (UO-31 renal): 17000 nM

From PubChem BioAssay (NCI)
